Test results as given in BindingDB's records for doi:10.1016/j.bmcl.2004.04.032 (Bristol-Myers Squibb, 2004).

What follows are compounds tested against T1, Thyroid hormone receptor alpha (Homo sapiens, UniProt P10827) (assay: TRalpha-Binding Assay.). Conditions: not given.
T1 sequence (P10827 whole entry): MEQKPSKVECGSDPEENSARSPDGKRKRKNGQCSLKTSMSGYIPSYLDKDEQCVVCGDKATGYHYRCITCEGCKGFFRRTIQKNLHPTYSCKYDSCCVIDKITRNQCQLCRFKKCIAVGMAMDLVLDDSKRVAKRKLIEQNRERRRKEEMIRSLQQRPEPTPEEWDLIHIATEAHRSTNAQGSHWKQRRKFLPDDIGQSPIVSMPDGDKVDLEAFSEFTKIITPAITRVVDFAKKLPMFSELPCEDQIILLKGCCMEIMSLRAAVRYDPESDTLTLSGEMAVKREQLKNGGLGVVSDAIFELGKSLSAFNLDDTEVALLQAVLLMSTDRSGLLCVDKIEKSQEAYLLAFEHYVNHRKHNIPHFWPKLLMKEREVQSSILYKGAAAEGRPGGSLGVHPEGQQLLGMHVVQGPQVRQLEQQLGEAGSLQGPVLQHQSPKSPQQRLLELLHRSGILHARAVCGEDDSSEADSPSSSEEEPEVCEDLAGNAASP

SMILES | IC50
O=C(O)Cc1cc(Cl)c(Oc2ccc(O)c(C(=O)NCCc3ccccc3)c2)c(Cl)c1 [2-(3,5-dichloro-4-{4-hydroxy-3-[(2-phenylethyl)carbamoyl]phenoxy}phenyl)acetic acid] | 127 nM
COc1ccc(CCNC(=O)c2cc(Oc3c(Br)cc(CC(=O)O)cc3Br)ccc2O)cc1 [2-[3,5-dibromo-4-(4-hydroxy-3-{[2-(4-methoxyphenyl)ethyl]carbamoyl}phenoxy)phenyl]acetic acid] | 228 nM

Now from value to compound:

IC50 | SMILES
18 nM | O=C(O)Cc1cc(Br)c(Oc2ccc(O)c(C(=O)NCC(c3ccccc3)c3ccccc3)c2)c(Br)c1 [2-(3,5-dibromo-4-{3-[(2,2-diphenylethyl)carbamoyl]-4-hydroxyphenoxy}phenyl)acetic acid]
244 nM | O=C(O)Cc1cc(Br)c(Oc2ccc(O)c(Oc3ccccc3C(F)(F)F)c2)c(Br)c1 [2-(3,5-dibromo-4-{4-hydroxy-3-[2-(trifluoromethyl)phenoxy]phenoxy}phenyl)acetic acid]
50 nM | O=C(O)Cc1cc(Br)c(Oc2ccc(O)c(Oc3cccc(C(F)(F)F)c3)c2)c(Br)c1 [2-(3,5-dibromo-4-{4-hydroxy-3-[3-(trifluoromethyl)phenoxy]phenoxy}phenyl)acetic acid]
326 nM | O=C(O)Cc1cc(Br)c(Oc2ccc(O)c(Oc3ccc(C(F)(F)F)cc3)c2)c(Br)c1 [2-(3,5-dibromo-4-{4-hydroxy-3-[4-(trifluoromethyl)phenoxy]phenoxy}phenyl)acetic acid]
15 nM | O=C(O)Cc1cc(Br)c(Oc2ccc(O)c(C(=O)NCCc3ccccc3)c2)c(Br)c1 [2-(3,5-dibromo-4-{4-hydroxy-3-[(2-phenylethyl)carbamoyl]phenoxy}phenyl)acetic acid]
203 nM | O=C(O)Cc1cc(Br)c(Oc2ccc(O)c(C(=O)NCCCc3ccccc3)c2)c(Br)c1 [2-(3,5-dibromo-4-{4-hydroxy-3-[(3-phenylpropyl)carbamoyl]phenoxy}phenyl)acetic acid]
281 nM | O=C(O)Cc1cc(Br)c(Oc2ccc(O)c(C(=O)NCCCCc3ccccc3)c2)c(Br)c1 [2-(3,5-dibromo-4-{4-hydroxy-3-[(4-phenylbutyl)carbamoyl]phenoxy}phenyl)acetic acid]
123 nM | O=C(O)Cc1cc(Br)c(Oc2ccc(O)c(Oc3ccccc3)c2)c(Br)c1 [2-[3,5-dibromo-4-(4-hydroxy-3-phenoxyphenoxy)phenyl]acetic acid]
96 nM | COc1ccccc1CCNC(=O)c1cc(Oc2c(Br)cc(CC(=O)O)cc2Br)ccc1O [2-[3,5-dibromo-4-(4-hydroxy-3-{[2-(2-methoxyphenyl)ethyl]carbamoyl}phenoxy)phenyl]acetic acid]
93 nM | COc1cccc(CCNC(=O)c2cc(Oc3c(Br)cc(CC(=O)O)cc3Br)ccc2O)c1 [2-[3,5-dibromo-4-(4-hydroxy-3-{[2-(3-methoxyphenyl)ethyl]carbamoyl}phenoxy)phenyl]acetic acid]
1130 nM | O=C(O)Cc1cc(Br)c(Oc2ccc(O)c(C(=O)NCCc3ccccn3)c2)c(Br)c1 [2-[3,5-dibromo-4-(4-hydroxy-3-{[2-(pyridin-2-yl)ethyl]carbamoyl}phenoxy)phenyl]acetic acid]
1470 nM | O=C(O)Cc1cc(Br)c(Oc2ccc(O)c(Oc3ccccc3O)c2)c(Br)c1 [2-{3,5-dibromo-4-[4-hydroxy-3-(2-hydroxyphenoxy)phenoxy]phenyl}acetic acid]
549 nM | O=C(O)Cc1cc(Br)c(Oc2ccc(O)c(Oc3cccc(O)c3)c2)c(Br)c1 [2-{3,5-dibromo-4-[4-hydroxy-3-(3-hydroxyphenoxy)phenoxy]phenyl}acetic acid]
499 nM | O=C(O)Cc1cc(Br)c(Oc2ccc(O)c(Oc3cccc(-c4ccccc4)c3)c2)c(Br)c1 [2-{3,5-dibromo-4-[4-hydroxy-3-(3-phenylphenoxy)phenoxy]phenyl}acetic acid]
237 nM | O=C(O)Cc1cc(Br)c(Oc2ccc(O)c(Oc3ccc(O)cc3)c2)c(Br)c1 [2-{3,5-dibromo-4-[4-hydroxy-3-(4-hydroxyphenoxy)phenoxy]phenyl}acetic acid]
424 nM | O=C(O)Cc1cc(Br)c(Oc2ccc(O)c(C(=O)Nc3ccccc3)c2)c(Br)c1 [2-{3,5-dibromo-4-[4-hydroxy-3-(phenylcarbamoyl)phenoxy]phenyl}acetic acid]
84 nM | O=C(O)Cc1cc(Br)c(Oc2ccc(O)c(C(=O)NCc3ccccc3)c2)c(Br)c1 [2-{4-[3-(benzylcarbamoyl)-4-hydroxyphenoxy]-3,5-dibromophenyl}acetic acid]

Same assay, conditions: pH 7; 4 °C

IC50 | SMILES
30 nM | O=C(O)Cc1cc(Cl)c(Oc2ccc(O)c(-c3cccc(OC(F)F)c3)c2)c(Cl)c1 [2-(3,5-dichloro-4-{3-[3-(difluoromethoxy)phenyl]-4-hydroxyphenoxy}phenyl)acetic acid]
18 nM | O=C(O)Cc1cc(Cl)c(Oc2ccc(O)c(-c3ccccc3C(F)(F)F)c2)c(Cl)c1 [2-(3,5-dichloro-4-{4-hydroxy-3-[2-(trifluoromethyl)phenyl]phenoxy}phenyl)acetic acid]
124 nM | CC(C)c1cccc(-c2cc(Oc3c(Cl)cc(CC(=O)O)cc3Cl)ccc2O)c1 [2-(3,5-dichloro-4-{4-hydroxy-3-[3-(propan-2-yl)phenyl]phenoxy}phenyl)acetic acid]
100 nM | O=C(O)Cc1cc(Cl)c(Oc2ccc(O)c(-c3cccc(OC(F)(F)F)c3)c2)c(Cl)c1 [2-(3,5-dichloro-4-{4-hydroxy-3-[3-(trifluoromethoxy)phenyl]phenoxy}phenyl)acetic acid]
40 nM | O=C(O)Cc1cc(Cl)c(Oc2ccc(O)c(-c3cccc(C(F)(F)F)c3)c2)c(Cl)c1 [2-(3,5-dichloro-4-{4-hydroxy-3-[3-(trifluoromethyl)phenyl]phenoxy}phenyl)acetic acid]
515 nM | O=C(O)Cc1cc(Cl)c(Oc2ccc(O)c(-c3ccc(C(F)(F)F)cc3)c2)c(Cl)c1 [2-(3,5-dichloro-4-{4-hydroxy-3-[4-(trifluoromethyl)phenyl]phenoxy}phenyl)acetic acid]
258 nM | O=C(O)Cc1cc(Cl)c(Oc2ccc(O)c(C3CCCCC3)c2)c(Cl)c1 [2-[3,5-dichloro-4-(3-cyclohexyl-4-hydroxyphenoxy)phenyl]acetic acid]
152 nM | O=C(O)Cc1cc(Cl)c(Oc2ccc(O)c(-c3ccccc3)c2)c(Cl)c1 [2-[3,5-dichloro-4-(4-hydroxy-3-phenylphenoxy)phenyl]acetic acid]
13 nM | CCc1cccc(-c2cc(Oc3c(Cl)cc(CC(=O)O)cc3Cl)ccc2O)c1 [2-{3,5-dichloro-4-[3-(3-ethylphenyl)-4-hydroxyphenoxy]phenyl}acetic acid]
558 nM | O=C(O)Cc1cc(Cl)c(Oc2ccc(O)c(-c3nccs3)c2)c(Cl)c1 [2-{3,5-dichloro-4-[4-hydroxy-3-(1,3-thiazol-2-yl)phenoxy]phenyl}acetic acid]
1050 nM | O=C(O)Cc1cc(Cl)c(Oc2ccc(O)c(-c3ccccc3O)c2)c(Cl)c1 [2-{3,5-dichloro-4-[4-hydroxy-3-(2-hydroxyphenyl)phenoxy]phenyl}acetic acid]
1160 nM | O=C(O)Cc1cc(Cl)c(Oc2ccc(O)c(-c3cccc(O)c3)c2)c(Cl)c1 [2-{3,5-dichloro-4-[4-hydroxy-3-(3-hydroxyphenyl)phenoxy]phenyl}acetic acid]
297 nM | COc1cccc(-c2cc(Oc3c(Cl)cc(CC(=O)O)cc3Cl)ccc2O)c1 [2-{3,5-dichloro-4-[4-hydroxy-3-(3-methoxyphenyl)phenoxy]phenyl}acetic acid]
454 nM | O=C(O)Cc1cc(Cl)c(Oc2ccc(O)c(-c3cccc(-c4ccccc4)c3)c2)c(Cl)c1 [2-{3,5-dichloro-4-[4-hydroxy-3-(3-phenylphenyl)phenoxy]phenyl}acetic acid]
847 nM | O=C(O)Cc1cc(Cl)c(Oc2ccc(O)c(-c3ccc(O)cc3)c2)c(Cl)c1 [2-{3,5-dichloro-4-[4-hydroxy-3-(4-hydroxyphenyl)phenoxy]phenyl}acetic acid]
1520 nM | O=C(O)Cc1cc(Cl)c(Oc2ccc(O)c(-c3ccccn3)c2)c(Cl)c1 [2-{3,5-dichloro-4-[4-hydroxy-3-(pyridin-2-yl)phenoxy]phenyl}acetic acid]
819 nM | O=C(O)Cc1cc(Cl)c(Oc2ccc(O)c(-c3cccnc3)c2)c(Cl)c1 [2-{3,5-dichloro-4-[4-hydroxy-3-(pyridin-3-yl)phenoxy]phenyl}acetic acid]
145 nM | O=C(O)Cc1cc(Cl)c(Oc2ccc(O)c(-c3ccncc3)c2)c(Cl)c1 [2-{3,5-dichloro-4-[4-hydroxy-3-(pyridin-4-yl)phenoxy]phenyl}acetic acid]
269 nM | O=C(O)Cc1cc(Cl)c(Oc2ccc(O)c(-c3cncnc3)c2)c(Cl)c1 [2-{3,5-dichloro-4-[4-hydroxy-3-(pyrimidin-5-yl)phenoxy]phenyl}acetic acid]
